Test results from patent US9546164B2 (GENENTECH, INC., priority 2013, dated 2017).
Counter-ions that a name gives are not always drawn.

Target: hNav1.7 (Homo sapiens (Human), UniProt Q15858)
Experiment: Tritiated sulfonamide competitive binding to membranes from cells expressing hNav1.7 and the β1 subunit;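 also: Filter-bound radioactivity counted by liquid scintillation, nonspecific binding defined with excess unlabelled ligand, IC50 fitted to percent inhibition of specific binding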
Conditions: not given

hNav1.7, sequence (Q15858 other isoform, or with tags, fused parts or gaps): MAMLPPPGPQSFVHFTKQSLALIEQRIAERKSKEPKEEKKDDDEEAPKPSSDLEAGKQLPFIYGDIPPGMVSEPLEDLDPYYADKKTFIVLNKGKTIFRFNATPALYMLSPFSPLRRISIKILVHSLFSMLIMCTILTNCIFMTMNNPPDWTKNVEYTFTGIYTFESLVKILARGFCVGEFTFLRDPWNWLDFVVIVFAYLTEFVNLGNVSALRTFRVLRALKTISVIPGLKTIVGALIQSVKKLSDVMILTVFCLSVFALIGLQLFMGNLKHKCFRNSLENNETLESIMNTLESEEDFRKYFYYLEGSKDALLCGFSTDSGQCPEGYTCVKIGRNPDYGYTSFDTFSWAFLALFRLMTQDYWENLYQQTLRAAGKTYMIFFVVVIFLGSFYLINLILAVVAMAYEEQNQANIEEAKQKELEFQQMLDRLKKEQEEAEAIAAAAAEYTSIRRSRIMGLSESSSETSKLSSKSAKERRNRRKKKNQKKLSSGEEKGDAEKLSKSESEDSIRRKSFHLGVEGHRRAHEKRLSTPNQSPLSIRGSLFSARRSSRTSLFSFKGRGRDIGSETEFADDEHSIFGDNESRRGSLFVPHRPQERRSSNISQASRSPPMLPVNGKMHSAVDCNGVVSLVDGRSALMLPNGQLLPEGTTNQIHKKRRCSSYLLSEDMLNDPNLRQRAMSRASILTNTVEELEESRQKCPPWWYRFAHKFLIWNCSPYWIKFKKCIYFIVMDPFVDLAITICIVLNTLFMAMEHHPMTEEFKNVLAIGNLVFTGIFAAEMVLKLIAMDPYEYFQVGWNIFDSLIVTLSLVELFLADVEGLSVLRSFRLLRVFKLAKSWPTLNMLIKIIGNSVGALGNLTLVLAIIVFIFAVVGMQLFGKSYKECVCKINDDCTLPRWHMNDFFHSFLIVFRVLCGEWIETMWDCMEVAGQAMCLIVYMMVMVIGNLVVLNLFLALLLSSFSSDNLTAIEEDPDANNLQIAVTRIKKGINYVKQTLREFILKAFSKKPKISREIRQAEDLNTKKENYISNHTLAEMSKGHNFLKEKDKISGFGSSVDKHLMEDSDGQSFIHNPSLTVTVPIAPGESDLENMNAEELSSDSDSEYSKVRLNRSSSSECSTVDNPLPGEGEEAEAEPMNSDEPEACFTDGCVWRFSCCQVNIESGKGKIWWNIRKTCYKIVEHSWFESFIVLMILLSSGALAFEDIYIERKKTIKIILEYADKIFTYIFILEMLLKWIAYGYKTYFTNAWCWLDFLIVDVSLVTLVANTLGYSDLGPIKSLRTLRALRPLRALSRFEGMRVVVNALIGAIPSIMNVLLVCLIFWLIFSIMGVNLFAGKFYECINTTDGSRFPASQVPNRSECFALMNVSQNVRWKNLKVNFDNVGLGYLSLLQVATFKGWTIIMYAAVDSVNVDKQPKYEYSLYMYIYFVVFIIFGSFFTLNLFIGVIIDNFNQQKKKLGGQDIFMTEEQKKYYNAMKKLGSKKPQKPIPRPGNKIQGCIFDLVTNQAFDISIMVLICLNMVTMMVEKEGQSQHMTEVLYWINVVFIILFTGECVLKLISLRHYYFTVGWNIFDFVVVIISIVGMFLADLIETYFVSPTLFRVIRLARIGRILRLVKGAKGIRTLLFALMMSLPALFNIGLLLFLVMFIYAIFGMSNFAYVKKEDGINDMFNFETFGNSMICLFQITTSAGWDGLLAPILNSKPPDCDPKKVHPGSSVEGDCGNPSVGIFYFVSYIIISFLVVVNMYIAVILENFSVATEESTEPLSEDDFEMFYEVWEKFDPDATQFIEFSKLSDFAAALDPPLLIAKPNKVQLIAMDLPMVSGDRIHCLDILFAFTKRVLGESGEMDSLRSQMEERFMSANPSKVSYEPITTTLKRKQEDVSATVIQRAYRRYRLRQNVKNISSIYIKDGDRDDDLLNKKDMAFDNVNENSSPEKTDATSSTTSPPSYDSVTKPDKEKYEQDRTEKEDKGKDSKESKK
hNav1.7, sequence (Q07699 19-218 partner): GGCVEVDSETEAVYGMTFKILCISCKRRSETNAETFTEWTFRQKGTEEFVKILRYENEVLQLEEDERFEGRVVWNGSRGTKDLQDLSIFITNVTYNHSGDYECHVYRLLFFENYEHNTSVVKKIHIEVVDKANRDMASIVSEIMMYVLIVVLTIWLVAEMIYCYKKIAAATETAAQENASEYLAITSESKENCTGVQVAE

Row | Compound | IC50 [nM]
1 | O=C(NS(=O)(=O)C1CC1)c1cc(C2CC2)c(CN2CC(Oc3cc(Cl)cc(Cl)c3)C2)cc1F [Example 545, 5-cyclopropyl-N-(cyclopropylsulfonyl)-4-((3-(3,5-dichlorophenoxy)azetidin-1-yl)methyl)-2-fluorobenzamide, trifluoroacetic acid salt] | 3.4
2 | O=C(NS(=O)(=O)C1CC1)c1cc(C2CC2)c(CN2CCC(Oc3ccc(F)cc3)CC2)cc1F [Example 508, 5-cyclopropyl-N-(cyclopropylsulfonyl)-2-fluoro-4-((4-(4-fluorophenoxy)piperidin-1-yl)methyl)benzamide, trifluoroacetic acid salt] | 44
3 | O=C(NS(=O)(=O)C1CC1)c1cc(C2CC2)c(O[C@@H]2CCCN(Cc3ccc(Cl)c(Cl)c3)C2)cc1F [Example 18, (R)-5-cyclopropyl-N-(cyclopropylsulfonyl)-4-((1-(3,4-dichlorobenzyl)-piperidin-3-yl)oxy)-2-fluorobenzamide] | 2.6
4 | CS(=O)(=O)NC(=O)c1cc(C2CC2)c(O[C@@H]2CCCN(Cc3c(Cl)cccc3Cl)C2)cc1F [Example 10, (R)-5-cyclopropyl-4-((1-(2,6-dichlorobenzyl)piperidin-3-yl)oxy)-2-fluoro-N-(methylsulfonyl)benzamide] | 4.1
5 | CS(=O)(=O)NC(=O)c1cc(C2CC2)c(O[C@@H]2CCCN(Cc3ccc(F)cc3)C2)cc1F [Example 20, (R)-5-cyclopropyl-2-fluoro-4-((1-(4-fluorobenzyl)piperidin-3-yl)oxy)-N-(methlysulfonyl)benzamide] | 30.9
6 | C[C@@H](c1cc(Cl)cc(Cl)c1)N1C[C@@H]2C[C@H]1CN2Cc1cc(F)c(C(=O)NS(=O)(=O)C2CC2)cc1C1CC1 [Example 564, 5-cyclopropyl-N-(cyclopropylsulfonyl)-4-(((1S,4S)-5-((S)-1-(3,5-dichlorophenyl)ethyl)-2,5-diazabicyclo[2.2.1]heptan-2-yl)methyl)-2-fluorobenzamide, trifluoroacetic acid salt] | 3.6

Same assay, conditions: read-out: Ligand Binding Assay; 100 pM [3H]compound, membranes with hNav1.7 and β1 subunit, 18 h, room temperature

Row | Compound | IC50 [nM]
7 | CS(=O)(=O)NC(=O)c1cc(C2CC2)c(OCC2CCN([C@@H]3c4ccccc4C[C@@H]3O)CC2)cc1F [Example 199, 5-Cyclopropyl-2-fluoro-4-((1-((1R,2S)-2-hydroxy-2,3-dihydro-1H-inden-1-yl)piperidin-4-yl)methoxy)-N-(methylsulfonyl)benzamide] | 1400
8 | O=C(NS(=O)(=O)N1CCC1)c1cc(C2CC2)c(OCC2CC3CCC(C2)N3Cc2ccccc2Cl)cc1F (stereo not shown) [Example 47, N-(azetidin-1-ylsulfonyl)-4-((8-(2-chlorobenzyl)-8-azabicyclo[3.2.1]octan-3-yl)methoxy)-5-cyclopropyl-2-fluorobenzamide] | 25.1
9 | CC1(COc2cc(F)c(C(=O)NS(=O)(=O)C3CC3)cc2C2CC2)CCN(c2cc(C(F)(F)F)c(Cl)cn2)CC1 [Example 557, 4-((1-(5-chloro-4-(trifluoromethyl)pyridin-2-yl)-4-methylpiperidin-4-yl)methoxy)-5-cyclopropyl-N-(cyclopropylsulfonyl)-2-fluorobenzamide] | 2.7
10 | CS(=O)(=O)NC(=O)c1cc(C2CC2)c(OCC2CCN(C3(c4cc(Cl)cc(Cl)c4)COC3)CC2)cc1F [Example 174, 5-Cyclopropyl-4-((1-(3-(3,5-dichlorophenyl)oxetan-3-yl)piperidin-4-yl)methoxy)-2-fluoro-N-(methylsulfonyl)benzamide] | 12
11 | CS(=O)(=O)NC(=O)c1cc(C2CC2)c(OCC2CN(c3cc(C(F)(F)F)c(Cl)cn3)C2)cc1F [Example 542, 4-((1-(5-chloro-4-(trifluoromethyl)pyridin-2-yl)azetidin-3-yl)methoxy)-5-cyclopropyl-2-fluoro-N-(methylsulfonyl)benzamide] | 27
12 | COCCS(=O)(=O)NC(=O)c1cc(C2CC2)c(OCC2CN(C(c3ccccc3)c3ccccc3)C2)cc1F [Example 61, 4-((1-benzhydrylazetidin-3-yl)methoxy)-5-cyclopropyl-2-fluoro-N-((2-methoxyethyl)sulfonyl)benzamide] | 57
13 | C[C@@H](c1ccc(Cl)c(Cl)c1)N1CCC(C)(COc2cc(F)c(C(=O)NS(C)(=O)=O)cc2C2CC2)CC1 (single isomer, unassigned) [Example 219] | 8.3
14 | CC1(COc2cc(F)c(C(=O)NS(C)(=O)=O)cc2C2CC2)CN(Cc2cc(Cl)cc(Cl)c2)C1 [Example 77] | 6.4
15 | CS(=O)(=O)NC(=O)c1cc(C2CC2)c(OCCC2CCN(Cc3cc(Cl)cc(Cl)c3)CC2)cc1F [Example 302, 5-cyclopropyl-4-(2-(1-(3,5-dichlorobenzyl)piperidin-4-yl)ethoxy)-2-fluoro-N-(methylsulfonyl)benzamide, trifluoroacetic acid salt] | 5.7
16 | CC1(COc2cc(F)c(C(=O)NS(C)(=O)=O)cc2C2CC2)CCN(C(c2ccccc2)c2ccccc2)CC1 [Example 574, 4-((1-benzhydryl-4-methylpiperidin-4-yl)methoxy)-5-cyclopropyl-2-fluoro-N-(methylsulfonyl)benzamide] | 2.9
17 | O=C(NS(=O)(=O)C1CC1)c1cc(C2CC2)c(CN2CCC(Oc3ncc(Br)cc3Cl)CC2)cc1F [Example 473, 4-((4-((5-bromo-3-chloropyridin-2-yl)oxy)piperidin-1-yl)methyl)-5-cyclopropyl-N-(cyclopropylsulfonyl)-2-fluorobenzamide, trifluoroacetic acid salt] | 9.5
18 | C[C@@H]1CC[C@@H](COc2cc(F)c(C(=O)NS(C)(=O)=O)cc2C2CC2)CN1Cc1cc(Cl)cc(Cl)c1 [Example 341, 5-cyclopropyl-4-(((3R,6R)-1-(3,5-dichlorobenzyl)-6-methylpiperidin-3-yl)methoxy)-2-fluoro-N-(methylsulfonyl)benzamide, trifluoroacetic acid salt] | 4.4
19 | CS(=O)(=O)NC(=O)c1cc(C2CC2)c(O[C@@H]2CCCN(Cc3ccc(S(C)(=O)=O)cc3Cl)C2)cc1F [Example 441, (R)-4-((1-(2-chloro-4-(methylsulfonyl)benzyl)piperidin-3-yl)oxy)-5-cyclopropyl-2-fluoro-N-(methylsulfonyl)benzamide, trifluoroacetic acid salt] | 138
20 | C[C@@H]1CC[C@@H](Oc2cc(F)c(C(=O)NS(=O)(=O)C3CC3)cc2C2CC2)CN1Cc1ccc(F)cc1Cl [Example 323, 4-(((3R,6R)-1-(2-chloro-4-fluorobenzyl)-6-methylpiperidin-3-yl)oxy)-5-cyclopropyl-N-(cyclopropylsulfonyl)-2-fluorobenzamide] | 1.9
21 | CS(=O)(=O)NC(=O)c1cc(C2CC2)c(OCC2CCN(S(=O)(=O)c3ccc(OC(F)(F)F)cc3)CC2)cc1F [Example 378, 5-cyclopropyl-2-fluoro-N-(methylsulfonyl)-4-((1-((4-(trifluoromethoxy)phenyl)sulfonyl)piperidin-4-yl)methoxy)benzamide] | 45.9
22 | CS(=O)(=O)NC(=O)c1cc(C2CC2)c(OCC2CN(C(c3ccccc3)c3ccc(C(F)(F)F)cc3)C2)cc1F (stereo not shown) [Example 131, 5-Cyclopropyl-2-fluoro-N-(methylsulfonyl)-4-((1-(phenyl(4-(trifluoromethyl)phenyl)methyl)-azetidin-3-yl)methoxy)benzamide] | 2.99
23 | CS(=O)(=O)NC(=O)c1cc(C2CC2)c(OCC2CCN(Cc3cccc(F)c3)CC2)cc1F [Example 88, 4-((1-(3-Fluorobenzyl)piperidin-4-yl)methoxy)-5-cyclopropyl-2-fluoro-N-(methylsulfonyl)benzamide] | 92.8
24 | CS(=O)(=O)NC(=O)c1cc(C2CC2)c(O[C@@H]2CCCN(Cc3cccc(C(F)(F)F)c3)C2)cc1F [Example 319, (R)-5-cyclopropyl-2-fluoro-N-(methylsulfonyl)-4-((1-(3-(trifluoromethyl)benzyl)piperidin-3-yl)oxy)benzamide] | 5.4
25 | C[C@H](c1cc(Cl)cc(Cl)c1)N1CC(COc2cc(F)c(C(=O)NS(C)(=O)=O)cc2C2CC2)C1 [Example 121, (R)-5-Cyclopropyl-4-((1-(1-(3,5-dichlorophenyl)ethyl)azetidin-3-yl)methoxy)-2-fluoro-N-(methylsulfonyl)benzamide] | 30.1
26 | CC1(COc2cc(F)c(C(=O)NS(=O)(=O)C3CC3)cc2C2CC2)CN(c2cc(Cl)c(C(F)(F)F)cn2)C1 [Example 486, 4-((1-(4-chloro-5-(trifluoromethyl)pyridin-2-yl)-3-methylazetidin-3-yl)methoxy)-5-cyclopropyl-N-(cyclopropylsulfonyl)-2-fluorobenzamide, trifluoroacetic acid salt] | 5.6
27 | CS(=O)(=O)NC(=O)c1cc(C2CC2)c(CN2[C@@H]3CC[C@H]2C[C@@H](Oc2cc(C(F)(F)F)c(Cl)cn2)C3)cc1F [Example 550, 4-(((1R,3r,5S)-3-((5-chloro-4-(trifluoromethyl)pyridin-2-yl)oxy)-8-azabicyclo[3.2.1]octan-8-yl)methyl)-5-cyclopropyl-2-fluoro-N-(methylsulfonyl)benzamide, trifluoroacetic acid salt] | 13.6
28 | O=C(NS(=O)(=O)C1CC1)c1cc(C2CC2)c(OCC2CCN(C(c3cccc(Cl)c3)c3cccc(Cl)c3)CC2)cc1F [Example 401, 4-((1-(bis(3-chlorophenyl)methyl)piperidin-4-yl)methoxy)-5-cyclopropyl-N-(cyclopropylsulfonyl)-2-fluorobenzamide, trifluoroacetic acid salt] | 3.1
29 | CS(=O)(=O)NC(=O)c1cc(C2CC2)c(OC[C@H]2CCN(Cc3cc(Cl)cc(Cl)c3)C(=O)C2)cc1F (single isomer, unassigned) [Example 235] | 210
30 | CS(=O)(=O)NC(=O)c1cc(C2CC2)c(O[C@H]2CN(Cc3ccc(F)cc3Cl)CC(F)(F)C2)cc1F [Example 445, (R)-4-((1-(2-chloro-4-fluorobenzyl)-5,5-difluoropiperidin-3-yl)oxy)-5-cyclopropyl-2-fluoro-N-(methylsulfonyl)benzamide] | 6.1
31 | C[C@@H](c1cc(Cl)cc(Cl)c1)N1CC(COc2cc(F)c(C(=O)NS(C)(=O)=O)cc2C2CC2)C1 [Example 120, (S)-5-Cyclopropyl-4-((1-(1-(3,5-dichlorophenyl)ethyl)azetidin-3-yl)methoxy)-2-fluoro-N-(methylsulfonyl)benzamide] | 20.6
